Results as given in the NIST ThermoML archive (doi:10.1016/j.fluid.2017.12.010).

Conditions: Liquid, Vibrating tube method

CCCCCCCCCC [decane]
Conditions	mass density [kg/m3]
283.55 K, 5000 kPa	742
283.56 K, 3000 kPa	740
283.56 K, 20000 kPa	752
283.56 K, 30000 kPa	758
283.56 K, 40000 kPa	763
283.56 K, 50000 kPa	769
283.56 K, 60000 kPa	774
283.56 K, 70000 kPa	779
283.56 K, 80000 kPa	783
283.56 K, 90000 kPa	788
283.57 K, 1000 kPa	739
283.57 K, 10000 kPa	745
283.58 K, 100 kPa	738
293.48 K, 100 kPa	731
293.48 K, 1000 kPa	731
293.49 K, 5000 kPa	734
293.49 K, 10000 kPa	738
293.49 K, 20000 kPa	745
293.5 K, 30000 kPa	751
293.5 K, 40000 kPa	757
293.5 K, 50000 kPa	763
293.5 K, 100000 kPa	787
293.51 K, 60000 kPa	768
293.51 K, 70000 kPa	773
293.51 K, 80000 kPa	778
293.51 K, 90000 kPa	783
303.42 K, 100 kPa	723
303.42 K, 1000 kPa	724
303.42 K, 10000 kPa	731
303.42 K, 30000 kPa	745
303.42 K, 40000 kPa	751
303.42 K, 70000 kPa	768
303.42 K, 80010 kPa	773
303.42 K, 90000 kPa	777
303.43 K, 5000 kPa	727
303.43 K, 20000 kPa	738
303.43 K, 50000 kPa	757
303.43 K, 60000 kPa	762
303.43 K, 100000 kPa	782
313.35 K, 100 kPa	716
313.35 K, 1000 kPa	717
313.35 K, 5000 kPa	721
313.35 K, 40000 kPa	746
313.36 K, 20000 kPa	732
313.36 K, 50000 kPa	752
313.36 K, 70000 kPa	763
313.36 K, 80000 kPa	768
313.36 K, 90000 kPa	773
313.36 K, 100000 kPa	777
313.37 K, 10000 kPa	725
313.37 K, 30000 kPa	739
313.37 K, 60000 kPa	757
323.24 K, 100 kPa	708
323.24 K, 1000 kPa	709
323.24 K, 100000 kPa	771
323.25 K, 5000 kPa	712
323.25 K, 10000 kPa	717
323.25 K, 20000 kPa	725
323.25 K, 30000 kPa	732
323.25 K, 40000 kPa	739
323.25 K, 50000 kPa	745
323.25 K, 60000 kPa	751
323.25 K, 70000 kPa	757
323.25 K, 80000 kPa	762
323.25 K, 90000 kPa	767
333.12 K, 5000 kPa	705
333.12 K, 10000 kPa	710
333.12 K, 20000 kPa	718
333.13 K, 100 kPa	700
333.13 K, 1000 kPa	701
333.13 K, 30000 kPa	726
333.13 K, 80000 kPa	757
333.13 K, 90000 kPa	762
333.13 K, 100000 kPa	767
333.14 K, 40000 kPa	733
333.14 K, 50000 kPa	740
333.14 K, 60000 kPa	746
333.14 K, 70000 kPa	751
343.01 K, 100 kPa	693
343.01 K, 1000 kPa	694
343.01 K, 10000 kPa	703
343.01 K, 20000 kPa	712
343.01 K, 30000 kPa	720
343.01 K, 40000 kPa	727
343.01 K, 50000 kPa	734
343.01 K, 60000 kPa	740
343.02 K, 5000 kPa	698
343.02 K, 70000 kPa	746
343.02 K, 80000 kPa	752
343.02 K, 90000 kPa	757
343.02 K, 100000 kPa	762
352.87 K, 100 kPa	686
352.87 K, 1000 kPa	687
352.87 K, 5000 kPa	691
352.88 K, 10000 kPa	696
352.88 K, 20000 kPa	706
352.88 K, 30000 kPa	714
352.88 K, 40000 kPa	722
352.88 K, 50000 kPa	729
352.88 K, 60000 kPa	735
352.89 K, 70000 kPa	741
352.89 K, 80000 kPa	747
352.89 K, 90000 kPa	753
352.89 K, 100000 kPa	758
362.69 K, 100 kPa	677
362.69 K, 1000 kPa	678
362.7 K, 5000 kPa	683
362.7 K, 10000 kPa	689
362.71 K, 20000 kPa	699
362.71 K, 30000 kPa	708
362.71 K, 40000 kPa	716
362.71 K, 50000 kPa	723
362.71 K, 60000 kPa	730
362.72 K, 70000 kPa	736
362.72 K, 80000 kPa	742
362.72 K, 90000 kPa	747
362.72 K, 100000 kPa	753

CCCCCCCCCCCC [dodecane]
Conditions	mass density [kg/m3]
283.29 K, 100 kPa	756
283.29 K, 1000 kPa	757
283.29 K, 3000 kPa	758
283.3 K, 5000 kPa	760
283.3 K, 10000 kPa	763
283.3 K, 30000 kPa	775
283.3 K, 40000 kPa	780
283.3 K, 50000 kPa	785
283.3 K, 60000 kPa	790
283.31 K, 20000 kPa	769
283.31 K, 70000 kPa	795
283.32 K, 80000 kPa	799
283.32 K, 90000 kPa	803
293.17 K, 100 kPa	749
293.18 K, 1000 kPa	750
293.19 K, 5000 kPa	753
293.19 K, 10000 kPa	756
293.19 K, 20000 kPa	763
293.19 K, 30000 kPa	769
293.19 K, 40000 kPa	774
293.19 K, 50000 kPa	780
293.19 K, 70000 kPa	789
293.19 K, 80000 kPa	794
293.19 K, 90000 kPa	798
293.19 K, 100000 kPa	802
293.2 K, 60000 kPa	785
303.04 K, 30000 kPa	762
303.04 K, 100000 kPa	797
303.05 K, 100 kPa	742
303.05 K, 1000 kPa	743
303.05 K, 5000 kPa	746
303.05 K, 20000 kPa	756
303.05 K, 50000 kPa	774
303.05 K, 60000 kPa	779
303.05 K, 70000 kPa	784
303.05 K, 80000 kPa	789
303.05 K, 90000 kPa	793
303.06 K, 10000 kPa	749
303.06 K, 40000 kPa	768
312.89 K, 100 kPa	736
312.89 K, 1000 kPa	737
312.9 K, 5000 kPa	740
312.9 K, 10000 kPa	744
312.9 K, 20000 kPa	751
312.9 K, 30000 kPa	757
312.9 K, 40000 kPa	763
312.9 K, 50000 kPa	769
312.9 K, 60000 kPa	774
312.9 K, 70000 kPa	780
312.9 K, 80000 kPa	784
312.9 K, 90000 kPa	789
312.9 K, 100000 kPa	793
322.83 K, 100 kPa	727
322.83 K, 1000 kPa	728
322.83 K, 5000 kPa	732
322.83 K, 10000 kPa	736
322.83 K, 20000 kPa	743
322.83 K, 30000 kPa	750
322.83 K, 40000 kPa	756
322.83 K, 50000 kPa	762
322.83 K, 60000 kPa	768
322.83 K, 70000 kPa	773
322.83 K, 80000 kPa	778
322.83 K, 90000 kPa	783
322.83 K, 100000 kPa	787
332.74 K, 100 kPa	720
332.74 K, 1000 kPa	721
332.74 K, 5000 kPa	725
332.74 K, 10000 kPa	729
332.74 K, 20000 kPa	737
332.74 K, 30000 kPa	744
332.74 K, 40000 kPa	750
332.74 K, 50000 kPa	757
332.74 K, 60000 kPa	762
332.74 K, 70000 kPa	768
332.74 K, 80000 kPa	773
332.74 K, 90000 kPa	778
332.75 K, 100000 kPa	782
342.67 K, 100 kPa	713
342.67 K, 1000 kPa	714
342.67 K, 5000 kPa	718
342.67 K, 10000 kPa	722
342.67 K, 20000 kPa	731
342.67 K, 30000 kPa	738
342.67 K, 40000 kPa	745
342.67 K, 50000 kPa	751
342.67 K, 60000 kPa	757
342.67 K, 69990 kPa	763
342.67 K, 80000 kPa	768
342.67 K, 90000 kPa	773
342.67 K, 100000 kPa	778
352.58 K, 100 kPa	707
352.58 K, 1000 kPa	708
352.58 K, 5000 kPa	712
352.58 K, 10000 kPa	716
352.58 K, 20000 kPa	725
352.58 K, 30000 kPa	733
352.58 K, 40000 kPa	740
352.58 K, 50000 kPa	747
352.58 K, 60000 kPa	753
352.58 K, 70000 kPa	759
352.58 K, 80000 kPa	764
352.58 K, 90000 kPa	769
352.58 K, 100000 kPa	774
362.48 K, 5000 kPa	704
362.48 K, 10000 kPa	709
362.48 K, 20000 kPa	718
362.48 K, 30000 kPa	726
362.48 K, 50000 kPa	741
362.48 K, 80000 kPa	759
362.48 K, 90000 kPa	764
362.49 K, 100 kPa	699
362.49 K, 1000 kPa	700
362.49 K, 40000 kPa	734
362.49 K, 60000 kPa	747
362.49 K, 70000 kPa	753
362.49 K, 100000 kPa	769
